*1 amine or outer side, *2 acyl side, *3 side chain or, on linkers, in order; H or OH if unused. Where a SMILES comes first, the peptide text is derived from it. [ ]: non-standard residue; d: D form. The star is where a group is joined. ξ: configuration not given here. Fluorescein(5-NHCS) = O=C1OC2(c3ccc(O)cc3Oc3cc(O)ccc32)c2cc(NC(=S)*)ccc21; X34 = O=C([C@@H]1[C@@H](O/N=C\c2ccc([N+](=O)[O-])o2)CCN1[*:1])[*:2]; X47 = O=C([C@@H]1C[C@@H](O/N=C\c2ccc([N+](=O)[O-])o2)CN1[*:1])[*:2]; X48 = O=C([C@@H]1C[C@@H](O/N=C\c2c(F)c(F)c(F)c(F)c2F)CN1[*:1])[*:2]; X36 = CC(/C=N\O[C@H]1CCN([*:1])[C@@H]1C(=O)[*:2])=C\c1ccccc1; X43 = COc1ccc(/C=N\O[C@H]2CCN([*:1])[C@@H]2C(=O)[*:2])cc1OC; X37 = O=C([C@@H]1C[C@@H](O/N=C\c2ccc(CO)o2)CN1[*:1])[*:2]; X42 = O=C([C@@H]1[C@@H](O/N=C\CCc2ccccc2)CCN1[*:1])[*:2]; X46 = O=C([C@@H]1C[C@H](O/N=C\CCc2ccccc2)CN1[*:1])[*:2]; X41 = CCCCC/C=N\O[C@@H]1C[C@@H](C(=O)[*:2])N([*:1])C1; X44 = O=C([C@@H]1[C@@H](O/N=C\c2ccoc2)CCN1[*:1])[*:2]; X35 = O=C([C@@H]1C[C@H](O/N=C\c2ccoc2)CN1[*:1])[*:2]; ξPip = O=C(O)C1CCCCN1; Ava = NCCCCC(=O)O
Each compound was assayed against T1, Tumor susceptibility gene 101 protein (Homo sapiens, UniProt Q99816) (assay: Binding affinity to Tsg101).
T1 sequence (Q99816 whole entry): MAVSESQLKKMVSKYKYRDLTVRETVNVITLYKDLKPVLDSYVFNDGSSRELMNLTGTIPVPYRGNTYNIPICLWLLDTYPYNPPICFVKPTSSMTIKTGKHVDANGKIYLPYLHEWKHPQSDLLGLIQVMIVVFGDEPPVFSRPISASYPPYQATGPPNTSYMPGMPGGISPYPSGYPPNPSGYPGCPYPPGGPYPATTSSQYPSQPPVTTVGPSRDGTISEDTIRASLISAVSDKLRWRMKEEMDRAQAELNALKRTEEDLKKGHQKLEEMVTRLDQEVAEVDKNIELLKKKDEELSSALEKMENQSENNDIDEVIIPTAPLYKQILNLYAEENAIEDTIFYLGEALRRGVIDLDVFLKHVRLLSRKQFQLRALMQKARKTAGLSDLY

| IC50 [µM] | Structure (SMILES) |
| --- | --- |
| 18 | C[C@H](NC(=O)[C@@H](NC(=O)[C@@H]1CCCN1C(=O)[C@H](CCC(=O)O)NC(=O)[C@@H]1CCCN1C(=O)CCCCNC(=S)Nc1ccc2c(c1)C1(OC2=O)c2ccc(O)cc2Oc2cc(O)ccc21)[C@@H](C)O)C(=O)N1CCCCC1C(=O)N1CC[C@H](O/N=C\c2ccc([N+](=O)[O-])o2)[C@H]1C(=O)N[C@@H](CCC(=O)O)C(=O)N[C@@H](CCC(=O)O)C(N)=O (stereo partly specified) ({Fluorescein(5-NHCS)-Ava}-PEPTA[ξPip][X34]EE-NH2) |
| 48 | C[C@H](NC(=O)[C@@H](NC(=O)[C@@H]1CCCN1C(=O)[C@H](CCC(=O)O)NC(=O)[C@@H]1CCCN1C(=O)CCCCNC(=S)Nc1ccc2c(c1)C1(OC2=O)c2ccc(O)cc2Oc2cc(O)ccc21)[C@@H](C)O)C(=O)N1CCCCC1C(=O)N1C[C@@H](O/N=C\c2ccoc2)C[C@H]1C(=O)N[C@@H](CCC(=O)O)C(=O)N[C@@H](CCC(=O)O)C(N)=O (stereo partly specified) ({Fluorescein(5-NHCS)-Ava}-PEPTA[ξPip][X35]EE-NH2) |
| 12 | CC(/C=N\O[C@H]1CCN(C(=O)C2CCCCN2C(=O)[C@H](C)NC(=O)[C@@H](NC(=O)[C@@H]2CCCN2C(=O)[C@H](CCC(=O)O)NC(=O)[C@@H]2CCCN2C(=O)CCCCNC(=S)Nc2ccc3c(c2)C2(OC3=O)c3ccc(O)cc3Oc3cc(O)ccc32)[C@@H](C)O)[C@@H]1C(=O)N[C@@H](CCC(=O)O)C(=O)N[C@@H](CCC(=O)O)C(N)=O)=C\c1ccccc1 (stereo partly specified) ({Fluorescein(5-NHCS)-Ava}-PEPTA[ξPip][X36]EE-NH2) |
| 26 | C[C@H](NC(=O)[C@@H](NC(=O)[C@@H]1CCCN1C(=O)[C@H](CCC(=O)O)NC(=O)[C@@H]1CCCN1C(=O)CCCCNC(=S)Nc1ccc2c(c1)C1(OC2=O)c2ccc(O)cc2Oc2cc(O)ccc21)[C@@H](C)O)C(=O)N1CCCCC1C(=O)N1C[C@H](O/N=C\c2ccc(CO)o2)C[C@H]1C(=O)N[C@@H](CCC(=O)O)C(=O)N[C@@H](CCC(=O)O)C(N)=O (stereo partly specified) ({Fluorescein(5-NHCS)-Ava}-PEPTA[ξPip][X37]EE-NH2) |
| 41 | CCCCC/C=N\O[C@@H]1C[C@@H](C(=O)N[C@@H](CCC(=O)O)C(=O)N[C@@H](CCC(=O)O)C(N)=O)N(C(=O)C2CCCCN2C(=O)[C@H](C)NC(=O)[C@@H](NC(=O)[C@@H]2CCCN2C(=O)[C@H](CCC(=O)O)NC(=O)[C@@H]2CCCN2C(=O)CCCCNC(=S)Nc2ccc3c(c2)C2(OC3=O)c3ccc(O)cc3Oc3cc(O)ccc32)[C@@H](C)O)C1 (stereo partly specified) ({Fluorescein(5-NHCS)-Ava}-PEPTA[ξPip][X41]EE-NH2) |
| 20 | C[C@H](NC(=O)[C@@H](NC(=O)[C@@H]1CCCN1C(=O)[C@H](CCC(=O)O)NC(=O)[C@@H]1CCCN1C(=O)CCCCNC(=S)Nc1ccc2c(c1)C1(OC2=O)c2ccc(O)cc2Oc2cc(O)ccc21)[C@@H](C)O)C(=O)N1CCCCC1C(=O)N1CC[C@H](O/N=C\CCc2ccccc2)[C@H]1C(=O)N[C@@H](CCC(=O)O)C(=O)N[C@@H](CCC(=O)O)C(N)=O (stereo partly specified) ({Fluorescein(5-NHCS)-Ava}-PEPTA[ξPip][X42]EE-NH2) |
| 22 | COc1ccc(/C=N\O[C@H]2CCN(C(=O)C3CCCCN3C(=O)[C@H](C)NC(=O)[C@@H](NC(=O)[C@@H]3CCCN3C(=O)[C@H](CCC(=O)O)NC(=O)[C@@H]3CCCN3C(=O)CCCCNC(=S)Nc3ccc4c(c3)C3(OC4=O)c4ccc(O)cc4Oc4cc(O)ccc43)[C@@H](C)O)[C@@H]2C(=O)N[C@@H](CCC(=O)O)C(=O)N[C@@H](CCC(=O)O)C(N)=O)cc1OC (stereo partly specified) ({Fluorescein(5-NHCS)-Ava}-PEPTA[ξPip][X43]EE-NH2) |
| 20 | C[C@H](NC(=O)[C@@H](NC(=O)[C@@H]1CCCN1C(=O)[C@H](CCC(=O)O)NC(=O)[C@@H]1CCCN1C(=O)CCCCNC(=S)Nc1ccc2c(c1)C1(OC2=O)c2ccc(O)cc2Oc2cc(O)ccc21)[C@@H](C)O)C(=O)N1CCCCC1C(=O)N1CC[C@H](O/N=C\c2ccoc2)[C@H]1C(=O)N[C@@H](CCC(=O)O)C(=O)N[C@@H](CCC(=O)O)C(N)=O (stereo partly specified) ({Fluorescein(5-NHCS)-Ava}-PEPTA[ξPip][X44]EE-NH2) |
| 83 | C[C@H](NC(=O)[C@@H](NC(=O)[C@@H]1CCCN1C(=O)[C@H](CCC(=O)O)NC(=O)[C@@H]1CCCN1C(=O)CCCCNC(=S)Nc1ccc2c(c1)C1(OC2=O)c2ccc(O)cc2Oc2cc(O)ccc21)[C@@H](C)O)C(=O)N1CCCCC1C(=O)N1C[C@@H](O/N=C\CCc2ccccc2)C[C@H]1C(=O)N[C@@H](CCC(=O)O)C(=O)N[C@@H](CCC(=O)O)C(N)=O (stereo partly specified) ({Fluorescein(5-NHCS)-Ava}-PEPTA[ξPip][X46]EE-NH2) |
| 12 | C[C@H](NC(=O)[C@@H](NC(=O)[C@@H]1CCCN1C(=O)[C@H](CCC(=O)O)NC(=O)[C@@H]1CCCN1C(=O)CCCCNC(=S)Nc1ccc2c(c1)C1(OC2=O)c2ccc(O)cc2Oc2cc(O)ccc21)[C@@H](C)O)C(=O)N1CCCCC1C(=O)N1C[C@H](O/N=C\c2ccc([N+](=O)[O-])o2)C[C@H]1C(=O)N[C@@H](CCC(=O)O)C(=O)N[C@@H](CCC(=O)O)C(N)=O (stereo partly specified) ({Fluorescein(5-NHCS)-Ava}-PEPTA[ξPip][X47]EE-NH2) |
| 32 | C[C@H](NC(=O)[C@@H](NC(=O)[C@@H]1CCCN1C(=O)[C@H](CCC(=O)O)NC(=O)[C@@H]1CCCN1C(=O)CCCCNC(=S)Nc1ccc2c(c1)C1(OC2=O)c2ccc(O)cc2Oc2cc(O)ccc21)[C@@H](C)O)C(=O)N1CCCCC1C(=O)N1C[C@H](O/N=C\c2c(F)c(F)c(F)c(F)c2F)C[C@H]1C(=O)N[C@@H](CCC(=O)O)C(=O)N[C@@H](CCC(=O)O)C(N)=O (stereo partly specified) ({Fluorescein(5-NHCS)-Ava}-PEPTA[ξPip][X48]EE-NH2) |

— ChEMBL document CHEMBL1140819, “Protected aminooxyprolines for expedited library synthesis: application to Tsg101-directed proline-oxime containing peptides” (Bioorg Med Chem Lett, 2008)
